Test results from patent US20090270379A1, “QUINOLONE DERIVATIVES USEFUL AS ANTIBACTERIAL AGENTS” (priority 2008, published 2009).
In brackets after ≈: the same amount, converted by molar mass.

Legend:
Type in all cases: cell-based
[1] = tested on: strain C, fluoroquinolone-resistant clinical isolate of Streptococcus pneumoniae; experiment: In vitro antibacterial activity (MIC), microdilution broth method, strain C; conditions: read-out: MIC (μg/mL) C
Procedure: (§1) Minimal inhibitory concentration (MIC) is an indicator of in vitro antibacterial activity. […] The in vitro antimicrobial activity of representative compounds of the present invention was determined by the microdilution broth method following the test method from the National Committee for Clinical Laboratory Standards (NCCLS). This method is described in the NCCLS Document M7-A4, Vol. 17, No. 2, “Methods for Dilution Antimicrobial Susceptibility Test for Bacteria that Grow Aerobically—Fourth Edition”, which is incorporated herein by reference.
(§2) In this method two-fold serial dilutions of drug in cation adjusted Mueller-Hinton broth were added to wells in microdilution trays. The test organisms were prepared by adjusting the turbidity of actively growing broth cultures so that the final concentration of test organism after it is added to the wells was approximately 5×10^4 CFU/well. Following inoculation of the microdilution trays, the trays were incubated at 35° C. for 16-20 hours and then read. The amount of growth in the wells containing the test compound was compared with the amount of growth in the growth-control wells (no test compound) used in each tray.
(§3) Representative compounds of the present invention were tested against a variety of pathogenic bacteria with results as listed in Table 3, below.

[2] = tested on: strain D, fluoroquinolone-resistant clinical isolate of Streptococcus pneumoniae; experiment: In vitro antibacterial activity (MIC), microdilution broth method, strain D; conditions: read-out: MIC (μg/mL) D
Procedure: as §1, §2, §3

[3] = tested on: strain B, fluoroquinolone-resistant clinical isolate of Streptococcus pneumoniae; experiment: In vitro antibacterial activity (MIC), microdilution broth method, strain B; conditions: read-out: MIC (μg/mL) B
Procedure: as §1, §2, §3

[4] = tested on: Staphylococcus aureus OC4172; experiment: In vitro antibacterial activity (MIC), microdilution broth method, strain A; conditions: cation adjusted Mueller-Hinton broth, 35° C., 16-20 hours
Procedure: as §1, §2, §3

[5] = tested on: Streptococcus pneumoniae ATCC 49619; experiment: In vitro antibacterial activity (MIC), microdilution broth method, strain E; conditions: ATCC49619, 35° C., 16-20 hours
Procedure: as §1, §2, §3

Row | Compound | MIC [1] [µg/mL] | MIC [2] [µg/mL] | MIC [3] [µg/mL] | MIC [4] [µg/mL] | MIC [5] [µg/mL]
1 | C[C@@H]1NCCn2cc(-c3nc4c(cc3F)c(=O)c(C(=O)O)cn4-c3ccc(F)cc3F)cc21 [Compound 28, 1-(2,4-Difluoro-phenyl)-6-fluoro-7-(1S-methyl-1,2,3,4-tetrahydro-pyrrolo[1,2-a]pyrazin-7-yl)-4-oxo-1,4-dihydro-[1,8]naphthyridine-3-carboxylic acid] | > 16 | > 16 | 16 (≈ 35.2 µM) | 1 (≈ 2.2 µM) | 4 (≈ 8.8 µM)
2 | COc1c(-c2cc3n(c2)CCN[C@@H]3C)c(F)cc2c(=O)c(C(=O)O)cn(C3CC3)c12 [Compound 17, 1-Cyclopropyl-6-fluoro-8-methoxy-7-(1R-methyl-1,2,3,4-tetrahydro-pyrrolo[1,2-a]pyrazin-7-yl)-4-oxo-1,4-dihydro-quinoline-3-carboxylic acid] | 16 (≈ 38.9 µM) | > 16 | 8 (≈ 19.4 µM) | 0.25 (≈ 0.608 µM) | 2 (≈ 4.86 µM)
3 | C[C@H]1Cn2cc(-c3cc4c(cc3F)c(=O)c(C(=O)O)cn4C3CC3)cc2CN1C [Compound 20, 1-Cyclopropyl-7-(2,3S-dimethyl-1,2,3,4-tetrahydro-pyrrolo[1,2-a]pyrazin-7-yl)-6-fluoro-4-oxo-1,4-dihydro-quinoline-3-carboxylic acid] | 16 (≈ 40.5 µM) | > 16 | 4 (≈ 10.1 µM) | 0.5 (≈ 1.26 µM) | 1 (≈ 2.53 µM)
4 | C[C@H]1Cn2cc(-c3cc4c(cc3F)c(=O)c(C(=O)O)cn4C3CC3)cc2CN1 [Compound 19, 1-Cyclopropyl-6-fluoro-7-(3S-methyl-1,2,3,4-tetrahydro-pyrrolo[1,2-a]pyrazin-7-yl)-4-oxo-1,4-dihydro-quinoline-3-carboxylic acid] | 4 (≈ 10.5 µM) | > 16 | 2 (≈ 5.24 µM) | 0.06 (≈ 0.157 µM) | 0.5 (≈ 1.31 µM)
5 | C[C@H]1COc2c(C3=C[C@H]4CNCCN4C3)c(F)cc3c(=O)c(C(=O)O)cn1c23 [Compound 33, 8-Fluoro-9-(1,2,3,4,6,8a-hexahydro-pyrrolo[12-a]pyrazin-7-yl)-3S-methyl-6-oxo-2,3-dihydro-6H-1-oxa-3a-aza-phenalene-5-carboxylic acid] | > 16 | > 16 | > 16 | 0.25 (≈ 0.649 µM) | 2 (≈ 5.19 µM)
6 | COc1c(-c2cc3n(c2)C[C@@H](C)N(C)C3)c(F)cc2c(=O)c(C(=O)O)cn(C3CC3)c12 [Compound 14, 1-Cyclopropyl-7-(2,3R-dimethyl-1,2,3,4-tetrahydro-pyrrolo[1,2-a]pyrazin-7-yl)-6-fluoro-8-methoxy-4-oxo-1,4-dihydro-quinoline-3-carboxylic acid] | 8 (≈ 18.8 µM) | > 16 | 2 (≈ 4.7 µM) | 0.25 (≈ 0.588 µM) | 1 (≈ 2.35 µM)
7 | C[C@@H]1NCCn2cc(-c3c(F)cc4c(=O)c(C(=O)O)cn5c4c3OC[C@@H]5C)cc21 [Compound 24, 8-Fluoro-3S-methyl-9-(1S-methyl-1,2,3,4-tetrahydro-pyrrolo[1,2-a]pyrazin-7-yl)-6-oxo-2,3-dihydro-6H-1-oxa-3a-aza-phenalene-5-carboxylic acid] | 8 (≈ 20.1 µM) | 16 (≈ 40.3 µM) | 4 (≈ 10.1 µM) | 0.25 (≈ 0.629 µM) | 1 (≈ 2.52 µM)
8 | C[C@H]1Cn2cc(-c3nc4c(cc3F)c(=O)c(C(=O)O)cn4-c3ccc(F)cc3F)cc2CN1 [Compound 27, 1-(2,4-Difluoro-phenyl)-6-fluoro-7-(3S-methyl-1,2,3,4-tetrahydro-pyrrolo[1,2-a]pyrazin-7-yl)-4-oxo-1,4-dihydro-[1,8]naphthyridine-3-carboxylic acid] | 16 (≈ 35.2 µM) | > 16 | 16 (≈ 35.2 µM) | 0.12 (≈ 0.264 µM) | 1 (≈ 2.2 µM)
9 | C[C@@H]1NCCn2cc(-c3ccc4c(=O)c(C(=O)O)cn(C5CC5)c4c3OC(F)F)cc21 [Compound 8, 1-Cyclopropyl-8-difluoromethoxy-7-(1S-methyl-1,2,3,4-tetrahydro-pyrrolo[1,2-a]pyrazin-7-yl)-4-oxo-1,4-dihydro-quinoline-3-carboxylic acid] | 16 (≈ 37.3 µM) | > 16 | 4 (≈ 9.31 µM) | 0.5 (≈ 1.16 µM) | 1 (≈ 2.33 µM)
10 | C[C@H]1Cn2cc(-c3nc4c(cc3F)c(=O)c(C(=O)O)cn4C3CC3)cc2CN1 [Compound 25, 1-Cyclopropyl-6-fluoro-7-(3S-methyl-1,2,3,4-tetrahydro-pyrrolo[1,2-a]pyrazin-7-yl)-4-oxo-1,4-dihydro-[1,8]naphthyridine-3-carboxylic acid] | 8 (≈ 20.9 µM) | 8 (≈ 20.9 µM) | 2 (≈ 5.23 µM) | 0.06 (≈ 0.157 µM) | 0.5 (≈ 1.31 µM)
11 | COc1c(-c2cc3n(c2)C[C@H](C)N[C@@H]3C)c(F)cc2c(=O)c(C(=O)O)cn(C3CC3)c12 [Compound 18, 1-Cyclopropyl-7-(1R,3S-dimethyl-1,2,3,4-tetrahydro-pyrrolo[1,2-a]pyrazin-7-yl)-6-fluoro-8-methoxy-4-oxo-1,4-dihydro-quinoline-3-carboxylic acid] | 8 (≈ 18.8 µM) | 16 (≈ 37.6 µM) | 2 (≈ 4.7 µM) | 0.12 (≈ 0.282 µM) | 1 (≈ 2.35 µM)
12 | C[C@H]1CN2CC(c3ccc4c(=O)c(C(=O)O)cn(C5CC5)c4c3OC(F)F)C[C@H]2CN1 (stereo partly drawn) [Compound 6, 1-Cyclopropyl-8-difluoromethoxy-7-(3S-methyl-octahydro-pyrrolo[1,2S-a]pyrazin-7-yl)-4-oxo-1,4-dihydro-quinoline-3-carboxylic acid] | > 16 | > 16 | > 16 | 4 (≈ 9.23 µM) | > 16
13 | COc1c(-c2cc3n(c2)C[C@@H](C)NC3)c(F)cc2c(=O)c(C(=O)O)cn(C3CC3)c12 [Compound 12, 1-Cyclopropyl-6-fluoro-8-methoxy-7-(3R-methyl-1,2,3,4-tetrahydro-pyrrolo[1,2-a]pyrazin-7-yl)-4-oxo-1,4-dihydro-quinoline-3-carboxylic acid] | 2 (≈ 4.86 µM) | 8 (≈ 19.4 µM) | 1 (≈ 2.43 µM) | 0.03 (≈ 0.0729 µM) | 0.25 (≈ 0.608 µM)
14 | O=C(O)c1cn(C2CC2)c2c(OC(F)F)c(C3C[C@H]4CNCCN4C3)ccc2c1=O (stereo partly drawn) [Compound 3, 1-Cyclopropyl-8-difluoromethoxy-7-(octahydro-pyrrolo[1,2S-a]pyrazin-7-yl)-4-oxo-1,4-dihydro-quinoline-3-carboxylic acid] | > 16 | > 16 | > 16 | 8 (≈ 19.1 µM) | > 16
15 | C[C@H]1COc2c(-c3cc4n(c3)CCNC4)c(F)cc3c(=O)c(C(=O)O)cn1c23 [Compound 35, 8-Fluoro-3S-methyl-6-oxo-9-(1,2,3,4-tetrahydro-pyrrolo[1,2-a]pyrazin-7-yl)-2,3-dihydro-6H-1-oxa-3a-aza-phenalene-5-carboxylic acid] | > 16 | > 16 | > 16 | 0.5 (≈ 1.3 µM) | 2 (≈ 5.22 µM)
16 | COc1c(C2=C[C@H]3CNCCN3C2)c(F)cc2c(=O)c(C(=O)O)cn(C3CC3)c12 [Compound 32, 1-Cyclopropyl-6-fluoro-7-(1,2,3,4,6,8a-hexahydro-pyrrolo[1,2S-a]pyrazin-7-yl)-8-methoxy-4-oxo-1,4-dihydro-quinoline-3-carboxylic acid] | > 16 | 16 (≈ 40.1 µM) | 16 (≈ 40.1 µM) | 0.25 (≈ 0.626 µM) | 2 (≈ 5.01 µM)
17 | COc1c(-c2cc3n(c2)C[C@H](C)NC3)c(F)cc2c(=O)c(C(=O)O)cn(C3CC3)c12 [Compound 11, 1-Cyclopropyl-6-fluoro-8-methoxy-7-(3S-methyl-1,2,3,4-tetrahydro-pyrrolo[1,2-a]pyrazin-7-yl)-4-oxo-1,4-dihydro-quinoline-3-carboxylic acid] | 1 (≈ 2.43 µM) | 4 (≈ 9.72 µM) | 0.5 (≈ 1.22 µM) | 0.03 (≈ 0.0729 µM) | 0.12 (≈ 0.292 µM)
18 | C[C@H]1NCCn2cc(-c3ccc4c(=O)c(C(=O)O)cn(C5CC5)c4c3OC(F)F)cc21 [Compound 9, 1-Cyclopropyl-8-difluoromethoxy-7-(1R-methyl-1,2,3,4-tetrahydro-pyrrolo[1,2-a]pyrazin-7-yl)-4-oxo-1,4-dihydro-quinoline-3-carboxylic acid] | 16 (≈ 37.3 µM) | > 16 | 4 (≈ 9.31 µM) | 0.5 (≈ 1.16 µM) | 1 (≈ 2.33 µM)
19 | CN[C@@H](C)C(=O)N1CCn2cc(-c3ccc4c(=O)c(C(=O)O)cn(C5CC5)c4c3OC(F)F)cc2C1 [Compound 10, 1-Cyclopropyl-8-difluoromethoxy-7-[2S-(2-methylamino-propionyl)-1,2,3,4-tetrahydro-pyrrolo[1,2-a]pyrazin-7-yl]-4-oxo-1,4-dihydro-quinoline-3-carboxylic acid] | 16 (≈ 32 µM) | > 16 | 4 (≈ 7.99 µM) | 0.25 (≈ 0.499 µM) | 2 (≈ 4 µM)
20 | COc1c(-c2cc3n(c2)CCN(Cc2ccccc2)C3)c(F)cc2c(=O)c(C(=O)O)cn(C3CC3)c12 [Compound 31, 7-(2-Benzyl-1,2,3,4-tetrahydro-pyrrolo[1,2-a]pyrazin-7-yl)-1-cyclopropyl-6-fluoro-8-methoxy-4-oxo-1,4-dihydro-quinoline-3-carboxylic acid] | > 16 | > 16 | 8 (≈ 16.4 µM) | 0.25 (≈ 0.513 µM) | 2 (≈ 4.1 µM)
